These results are taken from US20240158446A1, “CYCLIC COMPOUND HAVING SELECTIVE INHIBITORY ACTION ON KRAS OVER HRAS AND NRAS” (CHUGAI SEIYAKU KABUSHIKI KAISHA, priority 2021, published 2024).

The target in assay [1] is GDP-bound KRAS wild-type protein (Homo sapiens, UniProt P01116). As to the kind of experiment: Binding to KRAS by surface plasmon resonance (SPR), Single Cycle Kinetics. To be noted: SPR, Single Cycle Kinetics, GDP-bound KRAS wild-type protein; read-out: KRAS KD. A general note: In SPR one partner is held on a chip, and binding of the other changes the refractive index at the surface.

The target of assay [2] is GDP-bound NRAS wild-type protein (Homo sapiens, UniProt P01111). As to the kind of experiment: Binding to NRAS by surface plasmon resonance (SPR), Single Cycle Kinetics. To be noted: ratio of KD for GDP-bound NRAS wild-type protein to KD for KRAS, SPR.
Assay [3] addresses GDP-bound HRAS wild-type protein (Homo sapiens, UniProt P01112). As to the kind of experiment: Binding to HRAS by surface plasmon resonance (SPR), Single Cycle Kinetics. To be noted: ratio of KD for GDP-bound HRAS wild-type protein to KD for KRAS, SPR.
For assay [4], the system named is human lung cancer strain NCI-H441. As to the kind of experiment: cells. Particulars: NCI-H441, 96 h, read-out: NCI-H441 IC50 (nM), NCI-H441 cell proliferation, 4 days, CellTiter-Glo. On the technique in general: In ATP-based viability assays light output follows the ATP content of the culture.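 Also: cell proliferation inhibition after four days measured by CellTiter-Glo.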

Where a SMILES comes first, the peptide text is derived from it. Bridges are numbered along the chain shown (N, C = ends). [ ]: non-standard residue; d: D form. The star is where a group is joined. hPhe(3-Cl-4-CF3) = N[C@@H](CCc1ccc(C(F)(F)F)c(Cl)c1)C(=O)O; NPrPhe(4-CF3) = CCCN[C@@H](Cc1ccc(C(F)(F)F)cc1)C(=O)O; NMeGly(cPent) = CN[C@H](C(=O)O)C1CCCC1; NMeNva(3-Et) = CCC(CC)[C@H](NC)C(=O)O; NMeD = CN[C@@H](CC(=O)O)C(=O)O; NMeL = CN[C@@H](CC(C)C)C(=O)O; Morpholide = C1CN(*)CCO1; NMeA = CN[C@@H](C)C(=O)O; Ac5c = NC1(C(=O)O)CCCC1; Aze = O=C(O)[C@@H]1CCN1; Ac4c = NC1(C(=O)O)CCC1; NEtG = CCNCC(=O)O; Sar = CNCC(=O)O

GDP-bound HRAS wild-type protein, sequence (P01112 whole entry): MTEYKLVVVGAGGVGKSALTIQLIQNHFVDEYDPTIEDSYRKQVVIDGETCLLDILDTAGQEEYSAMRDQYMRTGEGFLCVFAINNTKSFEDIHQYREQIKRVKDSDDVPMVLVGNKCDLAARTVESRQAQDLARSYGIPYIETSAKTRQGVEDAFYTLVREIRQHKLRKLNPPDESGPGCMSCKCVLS
GDP-bound KRAS wild-type protein, sequence (P01116 whole entry): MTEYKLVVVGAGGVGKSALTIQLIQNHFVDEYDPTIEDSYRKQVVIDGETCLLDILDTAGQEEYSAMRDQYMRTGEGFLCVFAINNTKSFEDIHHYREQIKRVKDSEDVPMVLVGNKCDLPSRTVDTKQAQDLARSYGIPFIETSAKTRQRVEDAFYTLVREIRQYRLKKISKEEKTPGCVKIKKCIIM
GDP-bound NRAS wild-type protein, sequence (P01111 whole entry): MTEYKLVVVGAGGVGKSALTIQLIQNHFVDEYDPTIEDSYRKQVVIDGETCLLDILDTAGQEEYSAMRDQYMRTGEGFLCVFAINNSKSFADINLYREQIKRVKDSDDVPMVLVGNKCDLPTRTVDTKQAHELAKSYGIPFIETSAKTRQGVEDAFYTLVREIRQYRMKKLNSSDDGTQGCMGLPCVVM

The Kd is the concentration at which binding is half-saturated. Turning to `CCO[C@@H]1C[C@H]2C(=O)N(C)C3(CCC3)C(=O)N(C)[C@@H](C3CCCC3)C(=O)N(C)[C@H](C(=O)N(C)C)CC(=O)N(C)[C@@H](C3CC3)C(=O)N[C@@H]([C@@H](C)CC)C(=O)N(C)CC(=O)N(C)[C@H]3C/C=C\CCN(C3=O)[C@@H](Cc3ccc(C)cc3)C(=O)N(C)CC(=O)N[C@@H](CCc3cc(F)c(C(F)(F)F)c(F)c3)C(=O)N2C1` [PP1783], the Kd in assay [1] worked out at 0.028 nM. For the same molecule, the “NRAS/KRAS (KD ratio)” value in assay [2] was “A (a compound having 10 or more and less than 20 is denoted as A)”. In assay [3], the “HRAS/KRAS (KD ratio)” value is “B (a compound having 3 or more and less than 10 is denoted as B)”. Further, the IC50 in assay [4] turned out to be 3.5 nM.
On to `CCCN1C(=O)CN(C)C(=O)CNC(=O)[C@H]([C@@H](C)CC)NC(=O)[C@H](CC(C)C)N(C)C(=O)C[C@@H](C(=O)N2CCOCC2)N(C)C(=O)[C@H](C2CCCC2)N(C)C(=O)C2(CCCC2)NC(=O)[C@@H]2CCCN2C(=O)[C@H](CCc2ccc(C(F)(F)F)c(Cl)c2)NC(=O)CN(CC)C(=O)[C@@H]1Cc1ccc(C(F)(F)F)cc1` [PP1969] ([NMeL]IG[Sar][NPrPhe(4-CF3)][NEtG][hPhe(3-Cl-4-CF3)]P[Ac5c][NMeGly(cPent)][NMeD]-Morpholide; lactam N-11), for which, in assay [1], the Kd amounted to 2.1 nM. Moreover, the “NRAS/KRAS (KD ratio)” value in assay [2] is “B (a compound having 3 or more and less than 10 is denoted as B)”. Further, the “HRAS/KRAS (KD ratio)” value in assay [3] was “C (A compound having a KD ratio of 0.1 or more and less than 3 is denoted as C)”. Moreover, the IC50 in assay [4] is 74 nM.
Regarding `CC[C@H](C)[C@@H]1NC(=O)[C@H](CC)N(C)C(=O)C[C@@H](C(=O)N(C)CC)N(C)C(=O)[C@H](C2CCCC2)N(C)C(=O)C2(CCC2)NC(=O)[C@@H]2C[C@@H](C)CN2C(=O)[C@H](CCc2ccc(C(F)(F)F)c(OC)c2)NC(=O)CN(C)C(=O)[C@H](Cc2ccc(C)cc2)N2CC/C=C\C[C@@H](C2=O)N(C)C(=O)CN(C)C1=O` [PP1855], in assay [1], the Kd amounted to 0.19 nM. In addition, in assay [2], the “NRAS/KRAS (KD ratio)” value is on record as “AA (a compound having 20 or more is denoted as AA)”. Moreover, the “HRAS/KRAS (KD ratio)” value in assay [3] is “A (a compound having 10 or more and less than 20 is denoted as A)”. The IC50 in assay [4] turned out to be 17.7 nM.
On to `CCO[C@@H]1C[C@H]2C(=O)NC3(CC(C)(C)C3)C(=O)N(C)[C@@H](C3CCCC3)C(=O)N(C)[C@H](C(=O)N(C)C)CC(=O)N(C)[C@@H](CC(F)(F)F)C(=O)N[C@@H]([C@@H](C)CC)C(=O)N(C)CC(=O)N(C)[C@H]3C/C=C\CCN(C3=O)[C@@H](Cc3ccc(C(F)(F)F)cc3)C(=O)N(C)CC(=O)N[C@@H](CCc3cc(F)c(C(F)(F)F)c(F)c3)C(=O)N2C1` [PP1644], for which the Kd in assay [1] was 0.038 nM. Further, in assay [2], the “NRAS/KRAS (KD ratio)” value is “A (a compound having 10 or more and less than 20 is denoted as A)”. The “HRAS/KRAS (KD ratio)” value in assay [3] is “A (a compound having 10 or more and less than 20 is denoted as A)”. For the same molecule, the IC50 in assay [4] amounted to 2.7 nM.
In the case of `CCO[C@@H]1C[C@H]2C(=O)NC3(CC(C)(C)C3)C(=O)N(C)[C@@H](C3CCCC3)C(=O)N(C)[C@H](C(=O)N(C)C)CC(=O)N(C)[C@@H](CC)C(=O)N[C@@H]([C@@H](C)CC)C(=O)N(C)CC(=O)N(C)[C@H]3C/C=C\CCN(C3=O)[C@@H](Cc3ccc(C)cc3)C(=O)N(C)CC(=O)N[C@@H](CCc3ccc(C(F)(F)F)c(OC)c3)C(=O)N2C1` [PP1873], in assay [1], the Kd amounted to 0.075 nM. In addition, the “NRAS/KRAS (KD ratio)” value in assay [2] is “A (a compound having 10 or more and less than 20 is denoted as A)”. The “HRAS/KRAS (KD ratio)” value in assay [3] is “B (a compound having 3 or more and less than 10 is denoted as B)”. In assay [4], the IC50 is 8.5 nM.
For the molecule `CCCN(C)C(=O)[C@@H]1CC(=O)N(C)[C@@H](COC)C(=O)N[C@@H]([C@@H](C)CC)C(=O)N(C)CC(=O)N(C)[C@H]2C/C=C\CCN(C2=O)[C@@H](Cc2ccc(C(F)(F)F)cc2)C(=O)N(C)CC(=O)N[C@@H](CCc2cc(F)c(C(F)(F)F)c(F)c2)C(=O)N2CCC[C@H]2C(=O)NC2(CC(C)(C)C2)C(=O)N(C)[C@@H](C2CCCC2)C(=O)N1C` [PP1729], in assay [1], the Kd came out at 0.2 nM. For the same molecule, the “NRAS/KRAS (KD ratio)” value in assay [2] was “AA (a compound having 20 or more is denoted as AA)”. In addition, the “HRAS/KRAS (KD ratio)” value in assay [3] is “A (a compound having 10 or more and less than 20 is denoted as A)”. In assay [4], the IC50 came to 20.6 nM.
For the molecule `CC[C@H](C)[C@@H]1NC(=O)[C@H](CC)N(C)C(=O)C[C@@H](C(=O)N(C)CC)N(C)C(=O)[C@H](C2CCCC2)N(C)C(=O)C2(CC(C)(C)C2)NC(=O)[C@@H]2C[C@H](C)CN2C(=O)[C@H](CCc2ccc(C(F)(F)F)c(OC)c2)NC(=O)CN(C)C(=O)[C@H](Cc2ccc(C)cc2)N2CC/C=C\C[C@@H](C2=O)N(C)C(=O)CN(C)C1=O` [PP1868], the Kd in assay [1] was 0.087 nM. In addition, the “NRAS/KRAS (KD ratio)” value in assay [2] is “A (a compound having 10 or more and less than 20 is denoted as A)”. Also, the “HRAS/KRAS (KD ratio)” value in assay [3] was “B (a compound having 3 or more and less than 10 is denoted as B)”. The IC50 in assay [4] amounted to 10.7 nM.
For the molecule `CCCN1C(=O)[C@@H]2CCN2C(=O)[C@H](C)N(C)C(=O)[C@H]([C@@H](C)CC)NC(=O)[C@H](CC(C)C)N(C)C(=O)C[C@@H](C(=O)N(C)C)N(C)C(=O)[C@H](C(CC)CC)N(C)C(=O)C2(CCC2)NC(=O)[C@@H]2CCCN2C(=O)[C@H](CCc2ccc(C(F)(F)F)c(Cl)c2)NC(=O)CN(C)C(=O)[C@@H]1Cc1ccc(C(F)(F)F)cc1` [PP1961] ([NMeL]I[NMeA][Aze][NPrPhe(4-CF3)][Sar][hPhe(3-Cl-4-CF3)]P[Ac4c][NMeNva(3-Et)][NMeD]-NMe2; lactam N-11), the Kd in assay [1] was determined as 0.22 nM. The “NRAS/KRAS (KD ratio)” value in assay [2] was “C (A compound having a KD ratio of 0.1 or more and less than 3 is denoted as C)”. Besides, the “HRAS/KRAS (KD ratio)” value in assay [3] is “C (A compound having a KD ratio of 0.1 or more and less than 3 is denoted as C)”. The IC50 in assay [4] is 8 nM.
For `CCO[C@@H]1C[C@H]2C(=O)NC3(CC(C)(C)C3)C(=O)N(C)[C@@H](C3CCCC3)C(=O)N(C)[C@H](C(=O)N(C)CC)CC(=O)N(C)[C@@H](CC)C(=O)N[C@@H]([C@@H](C)CC)C(=O)N(C)CC(=O)N(C)[C@H]3C/C=C\CCN(C3=O)[C@@H](Cc3ccc(C)cc3)C(=O)N(C)CC(=O)N[C@@H](CCc3ccc(C(F)(F)F)c(Cl)c3)C(=O)N2C1` [PP1880], the Kd in assay [1] was found to be 0.15 nM. In addition, the “NRAS/KRAS (KD ratio)” value in assay [2] is “A (a compound having 10 or more and less than 20 is denoted as A)”. Besides, the “HRAS/KRAS (KD ratio)” value in assay [3] is “B (a compound having 3 or more and less than 10 is denoted as B)”. For the same molecule, the IC50 in assay [4] was 15.6 nM.
With `CC[C@H](C)[C@@H]1NC(=O)[C@H](CC(C)C)N(C)C(=O)C[C@@H](C(=O)N(C)C)N(C)C(=O)[C@H](C2CCCC2)N(C)C(=O)C2(CC(C)(C)C2)NC(=O)CN(C)C(=O)[C@H](CCc2cc(F)c(C(F)(F)F)c(F)c2)NC(=O)CN(C)C(=O)[C@H](Cc2ccc(C(F)(F)F)cc2)N2CC/C=C\C[C@@H](C2=O)N(C)C(=O)CN(C)C1=O` [PP1776], the Kd in assay [1] is 0.54 nM. In assay [2], the “NRAS/KRAS (KD ratio)” value was “A (a compound having 10 or more and less than 20 is denoted as A)”. Besides, the “HRAS/KRAS (KD ratio)” value in assay [3] was “A (a compound having 10 or more and less than 20 is denoted as A)”. In addition, the IC50 in assay [4] came out at 98.7 nM.
